This note sets out measurements from patent US9730906B2, “α-derivatives of cis-monounsaturated fatty acids for use as medicines” (UNIVERSITAT DE LES ILLES BALEARS, priority 2008, dated 2017).

The test system of test [1] is Human glioma cells (U118). The experiment in a line: Differentiation of human glioma cells (U118). The class given is cell-based. The note with it: 200 μM. An excerpt:
FIG. 16B. Human glioma cells (U118) are astrocytes of the central nervous system ([…]) that have lost their differentiation (Control). […] This differentiating activity can be involved in neuroregenerative processes necessary for recovery of motor activity.
This effect may be due to the induction of neural projection sprouting necessary to re-establish connections lost by the nerve fibre lesion.

For the next test, the system named is cadherin. The experiment in a line: Cadherin levels in A549 cells (antibody, confocal microscopy). The class given is cell-based, human. The note with it: 50 μM OHOD (48 h). As for the experimental part: FIG. 4. Cancer cells (A549) were incubated in the absence (FIG. 4A) and presence (FIG. 4B) of OHOD ([…], 48 h). Then they were fixed, incubated in the presence of an antibody against cadherin and were observed by confocal microscopy. Treatments with 50 μM OHOD (48 h) induced an increase of 73.6±5.4% in the levels of this protein. In treatments with the fatty acids of the invention, a significant increase in cadherin levels was observed.
Furthermore, α-derivatives of cis-monounsaturated fatty acids are capable of inducing cadherin expression. Cadherin is a cellular adhesion protein. Cells expressing cadherin are often not displaced from their tissue location as they adhere to the surrounding cells. Tumour cells that lose the capacity to synthesise this protein can migrate from the tissue in which they were generated to other body tissues where they can develop a new tumour focus by the process known as metastasis. In treatments with α-derivatives of cis-monounsaturated the fatty acids, a significant increase in cadherin levels was observed (FIG. 4). The invasive capacity of cancer cells was also investigated in a culture plate invasion model. […] Then, an area of the culture dish is scraped and the number of cells invading this region at various times, in the presence and absence of the anti-metastasis compound is counted.

The subject of the next test is aortas of SHR rats. The experiment in a line: Contractile response induced by noradrenalin in isolated aorta, organ bath. Also noted: species or system rat. Conditions: aortas pre-treated 60 minutes in organ bath at 37° C., vs vehicle, p<0.05. The protocol: FIG. 11. Effect of OHOD on the contractile response induced by noradrenalin (NA) in aortas of SHR rats. The logarithm of NA is shown on the horizontal axis and the concentration (g) is shown on the vertical axis. The aortas were treated with OHOD (filled circles) or vehicle (empty circles) for 60 minutes in an organ bath at 37° C. in Ringer medium with oxygen.
Atherosclerosis or arteriosclerosis is a pathology characterised by the loss of contractility of blood vessels. This loss is associated with diverse factors, among which is the formation of deposits on the vascular lumen giving rise to the proliferation of vascular cells, reduction of blood flow and vasoconstrictor and vasodilator responses to neurotransmitters (such as noradrenalin) and to hormones. In studies in isolated rat aorta in organ bath, it was shown that the contraction power of the aortic muscle in response to noradrenalin increased very markedly after pre-treatments with OHOD acid. In addition, all the compounds with the structure of Formula I had similar effects on vascular muscle.

The test system of another test is U87-MG. The experiment in a line: Effect of OHOD on cancer cells in culture (Table 2). It is filed as cell-based, human. Also noted: key to Anti-tumour effect: + [inhibition of growth]; ++ [total halt of growth]; +++ [total removal of tumour cells]; key to Mechanism of action: P [anti-proliferative]; D [differentiation]; A [apoptosis]. Conditions: Glioma. The protocol: (§1) Also, a series of α-derivatives of cis-monounsaturated fatty acids were used to investigate their effectiveness in cancer treatment. Two types of experiment were performed. Firstly, the dependency of the anti-tumour effect on concentration was investigated. To perform these experiments, human lung cancer cells (A549) were cultivated in RPMI medium, supplemented with 10% foetal bovine […], 10 mM Hepes (pH 7.4), 2 mM glutamine, 2 g/l bicarbonate, 1 g/l glucose, 100 units/ml penicillin, 0.1 mg/ml streptomycin, 0.25 μg/ml Amphotericin B, at 37° C. and in the presence of 5% CO2. In a first experimental series, these cells were treated with various concentrations (0-400 μM) of OHOD and MOD11 and the number of cells was determined by flow cytometry (FIG. 3A). […] In a second series, the anti-tumour effectiveness on A549 lung cancer cells was investigated at a single concentration (150 μM) and a time of 48 hours (FIG. 3B). […] Obviously, among the previous molecules, some lacked both modifications on the α-carbon and the double bond in cis configuration (EO, HDO, ODO) and had no therapeutic effect.
(§2) In a second experimental series, designed to discover whether these molecules are effective in treatment of different types of tumours, the effect of OHOD at various concentrations on human cells of different types of cancer was studied. These experiments were performed as described before, except that the M220 and HT-29 cell lines were cultured in DMEM medium and the MDA-MB-231 line was incubated in Leibowitz L-15 medium supplemented with 15% foetal bovine […]. […] Where the nature of the tumour process requires, application can be topical (use on the skin of active products for the treatment of melanoma and other cutaneous abnormalities of cancerous nature), which can be considered as cosmetic treatments when attempts are made to correct aesthetic defects.

Another test has as its system A118. The test is described as above. The class given is cell-based, human. The arrangement: key to Anti-tumour effect: + [inhibition of growth]; ++ [total halt of growth]; +++ [total removal of tumour cells]; key to Mechanism of action: P [anti-proliferative]; D [differentiation]; A [apoptosis]. Conditions: A118, Glioma. The protocol:
as §1, §2

A further test concerns LNcaP. The test is described as above. It is filed as cell-based, human. Also noted: key to Anti-tumour effect: + [inhibition of growth]; ++ [total halt of growth]; +++ [total removal of tumour cells]; key to Mechanism of action: P [anti-proliferative]; D [differentiation]; A [apoptosis]. Conditions: Prostate. As for the experimental part: as §1, §2
Another test has as its system HT-29. The description is as above. The class given is cell-based, human. The arrangement: key to Anti-tumour effect: + [inhibition of growth]; ++ [total halt of growth]; +++ [total removal of tumour cells]; key to Mechanism of action: P [anti-proliferative]; D [differentiation]; A [apoptosis]. Conditions: HT-29, Colon. The protocol:
as §1, §2

The next test concerns A172. The test is described as above. The class given is cell-based, human. Also noted: key to Anti-tumour effect: + [inhibition of growth]; ++ [total halt of growth]; +++ [total removal of tumour cells]; key to Mechanism of action: P [anti-proliferative]; D [differentiation]; A [apoptosis]. The note with it: A172, Glioma. The protocol:
as §1, §2

Another test deals with M220. The test is described as above. It is filed as cell-based, human. The arrangement: key to Anti-tumour effect: + [inhibition of growth]; ++ [total halt of growth]; +++ [total removal of tumour cells]; key to Mechanism of action: P [anti-proliferative]; D [differentiation]; A [apoptosis]. The note with it: M220, Pancreas. The protocol: as §1, §2

Molecules are shown by their SMILES.

For `CCCCCCCC/C=C\CCCCCCC(O)C(=O)[O-].[Na+]` (stereo not drawn) [Na-OHOD], the “differentiation of glioma cells” value in [1] is “differentiate and develop towards the glial phenotype”.

Take `CCCCCCCC/C=C\CCCCCCC(O)C(=O)O` (stereo not drawn) [OHOD, α-Hydroxy-cis-Δ9-octadecenoic]: in the test on cadherin, the “increase in the levels of cadherin” value was determined as 73.6±5.4%. The “contractile response induced by noradrenalin (NA)” value in the test on aortas of SHR rats was “much higher”. Moreover, the Anti-tumour effect result in the test on U87-MG is listed as “+++”; in the test with A118, “+++”; in the test on LNcaP, “+++”; in the test with HT-29, “++”; in the test with A172, “++”; with M220 it was “++”. The Mechanism of action entry in the test on U87-MG was “D”; in the test on A118, “D”; in the test on LNcaP, “A”; in the test on HT-29 it was “A”; in the test with A172 it was “D”; in the test on M220, “A”.
